Patent publication US6225334A (priority 1996, dated 2001)
Read-outs that look alike come from different tables or passages of the source.

What was measured:
[1] = test system: Phytophthora infestans; format: in vivo; settings: 3 days after the inoculation, tomato, protective
[2] = logP (HPLC); format: physicochemical
[3] = test system: beet army-worm (Spodoptera frugiperda); test: Spodoptera test; format: in vivo; settings: 216 h, active compound concentration of 0.05%, after 9 days, larvae L2-L3 on synthetic feed, read-out: kill
Description: 100 parts by weight of acetone
1900 parts by weight of methanol
A stated amount of the preparation of active compound of the desired concentration is pipetted onto a standardized amount of synthetic feed. In 3 replications, one larva (L2 -L3) each of the beet army-worm (Spodoptera frugiperda) is placed on the feed.
After the desired period of time, the kill in % is determined.

[4] = test system: Plasmopara viticola; test: Plasmopara-Test (Grapevines)/protective; format: in vivo; settings: application rate of 50 g/ha, 6 days after the inoculation, protective
[5] = test system: greenhouse red spider mite (Tetranychus urticae); test: Tetranychus-Test (OP-resistant/dip treatment); settings: 168 h, read-out: kill
Description: 7.5 parts by weight of dimethylformamide
100 parts by weight of methanol
Emulsifier: 2.5 parts by weight of alkylaryl polyglycol ether
After the desired period of time, the activity in % is determined. 100% means that all spider mites have been killed; 0% means that none of the spider mites have been killed.

[6] = first of two values printed (x/y)

Compound | chromatographic logP [2, 6] | chromatographic logP ([2]; second of two values) | other results
CON=C(C(=O)NCCc1ccc(OC)c(OC)c1)c1ccc2c(c1)CCc1ccccc1C2 [IV-2] | 3.61 | 3.87 | efficacy compared to the untreated control ([1]; application rate of 50 g/ha): 96%
COC(=O)ON=C(C(=O)NCCc1ccc(OC)c(OC)c1)c1ccc2c(c1)CCC2 [Example I-11] | 2.78 | 2.97 | –
CCON=C(C(=O)NCCc1ccc(OC)c(OC)c1)c1ccc2c(c1)Cc1ccccc1C2 [Example IV-1] | – | – | chromatographic logP ([2]; e isomer): 3.62; chromatographic logP ([2]; z isomer): 4
CCc1ccc(C(=NOC)C(=S)NCCc2ccc(OC)c(OC)c2)cc1 [II-4] | 3.5 | 3.77 | mortality at 0.05 % [3]: 100%
CON=C(C(=S)NCCc1ccc(OC)c(OC)c1)c1ccc(C)cc1 [II-3] | 3.15 | 3.41 | –
COc1ccc(CCNC(=O)C(=NOC(=O)Oc2ccccc2)c2ccc3c(c2)CCCC3)cc1OC [Example I-5] | 3.82 | 4.09 | –
CCOC(=O)ON=C(C(=O)NCCc1ccc(OC)c(OC)c1)c1ccc(Br)cc1 [Example I-10] | – | – | chromatographic logP ([2]; single value given): 3.19
COc1ccc(CCNC(=O)C(=NOC(C)=O)c2ccc3c(c2)CCCC3)cc1OC [Example I-1, N-[(3,4-dimethoxyphenyl)-2-ethyl]-2-acetoxyimino-2-(2-tetrahydronaphthyl)-acetamide] | – | – | efficacy compared to the untreated control ([1]; application rate of 50 g/ha): 95%
COc1ccc(CCNC(=O)C(=NOC(=O)c2ccccc2)c2ccc3c(c2)CCCC3)cc1OC [Example I-7] | 3.69 | 4.1 | –
CON=C(C(=O)NCCc1ccc(OC)c(OC)c1)c1ccc2c(c1)OCC2 [III-2] | 2.24 | 2.46 | –
CON=C(C(=S)NCCc1ccc(OC)c(OC)c1)c1ccc(Br)cc1 [II-6] | 3.5 | 3.8 | efficacy compared to the untreated control [4]: 89%
CCON=C(C(=O)NCCc1ccc(OC)c(OC)c1)c1ccc(Cl)cc1 [Example II-II-1] | – | – | chromatographic logP ([2]; e isomer): 3.07; chromatographic logP ([2]; z isomer): 3.34
CCON=C(C(=O)NCCc1ccc(OC)c(OC)c1)c1ccc2c(c1)OCC2 [Example III-1, N-[2-(3,4dimethoxyphenyl)-ethyl]-2-(2,3-dihydrobenzofuran-6-yl)2-ethoximino-acetamide] | – | – | efficacy compared to the untreated control ([1]; application rate of 500 g/ha): 95%
CCOC(=O)ON=C(C(=O)NCCc1ccc(OC)c(OC)c1)c1ccc2c(c1)CCC2 [Example I-13] | 3.04 | 3.27 | –
CCON=C(C(=S)NCCc1ccc(OC)c(OC)c1)c1ccc2c(c1)CCC2 [II-10] | 3.87 | 4.13 | –
COc1ccc(CCNC(=O)C(=NOC(=O)OC(C)C)c2ccc3c(c2)CCCC3)cc1OC [Example I-4] | 3.55 | 3.84 | –
CCON=C(C(=S)NCCc1ccc(OC)c(OC)c1)c1ccc(Br)cc1 [II-5] | 3.82 | 4.14 | –
CCc1ccc(C(=NOC(=O)OC)C(=O)NCCc2ccc(OC)c(OC)c2)cc1 [Example I-14] | 2.73 | 2.94 | mortality at 0.05 % [5]: 100%
CCON=C(C(=S)NCCc1ccc(OC)c(OC)c1)c1cccc(CC)c1 [II-8] | 3.82 | 4.09 | –
COc1ccc(CCNC(=O)C(=NOC(=O)OC2CCCCC2)c2ccc3c(c2)CCCC3)cc1OC [Example I-6] | 4.2 | 4.62 | –
CON=C(C(=O)NCCc1ccc(OC)c(OC)c1)c1ccc2c(c1)Cc1ccccc1C2 [IV-4] | 3.31 | 3.68 | –
CCON=C(C(=O)NCCc1ccc(OC)c(OC)c1)c1ccc2c(c1)CCc1ccccc1C2 [IV-3] | 3.91 | 4.2 | efficacy compared to the untreated control ([1]; application rate of 50 g/ha): 96%
COc1ccc(CCNC(=O)C(=NOC(C)=O)c2ccc3c(c2)CCC3)cc1OC [Example I-12] | 2.65 | 2.87 | –
CCON=C(C(=S)NCCc1ccc(OC)c(OC)c1)c1ccc(Cl)cc1 [Example II-1, N-[2-(3,4-dimethoxyphenyl)-ethyl]-2-ethoximino-2-(4-chlorophenyl)-thioacetamide] | – | – | chromatographic logP ([2]; e isomer): 3.73; chromatographic logP ([2]; z isomer): 4.03
CCOC(=O)ON=C(C(=O)NCCc1ccc(OC)c(OC)c1)c1ccc2c(c1)CCCC2 [Example I-3] | 3.19 | 3.55 | –
CCON=C(C(=S)NCCc1ccc(OC)c(OC)c1)c1ccc2c(c1)CCCC2 [II-2] | 4.13 | 4.41 | –
CCc1ccc(C(=NOC(C)=O)C(=O)NCCc2ccc(OC)c(OC)c2)cc1 [Example I-16] | 2.42 | 2.6 | –
CCOC(=O)ON=C(C(=O)NCCc1ccc(OC)c(OC)c1)c1ccc(CC)cc1 [Example I-15] | – | – | chromatographic logP ([2]; single value given): 2.98
